Measurements from publication PMC7211193, “Evaluation of absorption, distribution, metabolism, and excretion of [^14C]-rucaparib, a poly(ADP-ribose) polymerase inhibitor, in patients with advanced solid tumors” (Investigational New Drugs, 2019).
Values joined by “and” are separate entries in the source; they are usually repeats but may differ in a detail not shown here. Equal values may be shown once.

Columns and labels:
[1] = Mass balance: recovery of radioactivity in urine and feces; format: in vivo, human
Protocol: Six patients received a single oral dose of [^14C]-rucaparib 600 mg (approximately 5.18 MBq or 140 μCi) on day 1 after fasting for 10 h and were confined at the study site for the collection of blood samples and excreta for a maximum of 12 days.
For the purposes of the mass balance study and metabolite profiling, urine and fecal samples were collected during predetermined intervals. Urine was collected at time 0 (predose), 0–6, 6–12, and 12–24 h, and daily per 24-h interval from day 2 to day 12. Urine was collected in 3-L polyethylene containers and stored at 4 °C for the duration of the collection period. After each collection period, urine samples were mixed thoroughly, weighed, portioned into aliquots in polypropylene tubes, and then frozen at or below −70 °C until metabolite profiling and TRA analyses by LSC. Feces were collected daily in 24-h intervals from predose to day 12. Feces collections were kept at or below −20 °C. Sample pretreatment involved diluting and homogenizing the feces by adding water (1–2 weight equivalents). An Ultra-Turrax mixer (IKA, Staufen im Breisgau, Germany) was used to homogenize the samples before aliquoting. Separate aliquots of fecal homogenate were transferred to polypropylene tubes. Aliquots for radioactivity measurement by LSC were stored at or below −20 °C until analysis, whereas aliquots for metabolite profiling were stored at −70 °C until analysis.
Patients 01, 05, and 09 were confined to the study site for sample collections for 12 days, but Patients 03, 06, and 08 were discharged earlier per protocol because cumulative recovery of radioactivity from these patients exceeded 90% of the administered dose or the radioactivity in urine and feces was <1% of the administered dose over a 24-h period on 2 consecutive days.
TRA analysis was performed on a Liquid Scintillation Counter Tri-Carb Model 3100TR (PerkinElmer). Aliquots of blood (300 μL), plasma (250 μL), and urine (1 mL) were transferred to scintillation vials. Blood samples were incubated at ≥60 °C with SOLVABLE (1 mL). After cooling to room temperature, EDTA (0.1 M, 100 μL) and hydrogen peroxide (225 μL) were added to dissolve blood cells, reduce foaming, and decrease color intensity. Finally, after incubation at ≥45 °C and ≥60 °C, Ultima Gold (≥5-fold) was added, and the samples were analyzed with LSC. For urine samples, Ultima Gold (≥5-fold) was added, and the samples were analyzed with LSC.
Fecal samples were processed further and combusted before LSC analyses. Aliquots (≈500 mg) of the fecal homogenates were dried in an oven (50 °C). Combustaid (100 μL) was added to the dry homogenates and the sample was combusted in a Sample Oxidizer Model 307 (PerkinElmer). Carbo-Sorb E (7 mL) was used as an absorber agent for the [^14C]-carbon dioxide that was generated during combustion. At the end of the combustion cycle, the absorber was mixed with 13 mL of the scintillant PermaFluor E. After combustion, TRA of fecal aliquots was determined by LSC as described for urine samples.
For the vomit sample collected from Patient 01 (clear vomitus) the urine method was used, and for Patient 05 (not clear vomitus) the feces method was used.

[2] = Metabolite profiling in pooled urine (LC-MS-Radiomatic); format: in vivo, human; conditions: for % Dose in urine: pooled urine, % of administered dose
Protocol: For each patient, urine samples from different collection intervals were pooled in proportion to their sample weight in order to obtain a pooled sample covering 90% of the TRA in urine. Pooled urine samples were lyophilized and then extracted at least twice with acetonitrile. The obtained supernatant was evaporated to dryness, and the dried residues were reconstituted in 20% acetonitrile in water containing 0.1% TFA. An aliquot of the supernatant was analyzed for TRA to determine extraction efficiency, and the mean recovery was ≈70%. Aliquots of the supernatants were injected into the HPLC coupled to UV and radioactive detectors to obtain metabolite profiles. The samples were also analyzed using LC-MS for metabolite identification.
Metabolite profiling and identification were performed on an LC system (Agilent) coupled to an LTQ Orbitrap mass spectrometer (Thermo Electron, Waltham, MA, USA) in combination with offline TopCount (LC-MS-TopCount) or online Radiomatic 625TR (LC-MS-Radiomatic; PerkinElmer). Proposed structures of the metabolites were based on accurate mass (<5 ppm) and comparison of mass spectral data of parent compound rucaparib and metabolite standard M324. The Radiomatic 625TR flow detector, equipped with a 200 μL flow cell, was operated using scintillation cocktail (Ultima-Flo M) delivered at a flow rate of 1 mL/min. Chromatography was done using a Phenomenex (Torrance, CA, USA) Luna Phenyl-Hexyl column (250 × 2 mm, 5 μm, 100 Å) at ambient temperature during the sample analysis. The mobile phase was (A) 0.05% TFA in water and (B) 0.05% TFA in acetonitrile, with a 0.2 mL/min flow rate. The gradient was as follows: 5% B over 2.1 min, to 20% B in 1.0 min, to 35% B in 16.9 min, isocratic at 35% B for 5 min, to 95% B over 5 min, and reduced to 5% B over 1 min, with total run time 45 min.
The abundance of unchanged rucaparib and metabolites identified in plasma, urine, and feces was determined as a percentage of the TRA in the analyzed samples. Percentage of the administered dose of rucaparib and metabolites was calculated in urine and feces (formula A). The concentration of rucaparib and its metabolites in plasma (ng Eq h/mL) was calculated based on the specific activity, TRA, and percentage of peaks (formula B). The AUC0-24h value of rucaparib and its major metabolite M324 in plasma was calculated using both Hamilton method (formula C) and linear trapezoidal method (formula D). • (A) %Doseofmetabolite=TRAinurineorfeces(dpm)÷TRAinadministereddose(dpm)×%metabolitesinmatrix • (B) Metaboliteconcentrationsinplasma(ngEq/mL)=TRAinplasma(dpm/mL)specificactivity(ngEq/dpm)×%metabolitesinthematrix • (C) Hamiltonmethod:AUC0−24h(ngEqh/mL)=concentrationinHamilton(AUC0−24h)pooledplasma(ngEq/mL)×24(h) • (D) Lineartrapezoidalmethod:AUC0−24h(ngEqh/mL)=C1h/2×1h+C1h+C4h/2×(4h−1h)+C4h+C8h/2×(8h−4h)+C8h+C24h/2×(24h−8h)

[3] = cited from earlier work
[4] = within 12 days post dose, mean ± SD, N = 6
[5] = single oral 600 mg, versus fasted

**Q.** Which “Cumulative recovery of the actual dose, Patient 01” value ([1]; Patient 01, dose corrected for loss by vomiting) does the source give for `CNCc1ccc(-c2[nH]c3cc(F)cc4c3c2CCNC4=O)cc1` [Rucaparib, rucaparib] here?
**A.** 86.5%

**Q.** What about the “Dose recovery in feces, patient who lost 0.03% of dose by vomiting” value ([1]; Patient 05) of the same molecule?
**A.** 62.2%

**Q.** And the “Dose recovery in urine, patient who lost 0.03% of dose by vomiting” value ([1]; Patient 05)?
**A.** 10.9%

**Q.** And the “Cumulative dose recovery, patient who lost 0.03% of dose by vomiting (lowest recovery)” value ([1]; Patient 05, urine plus feces)?
**A.** 73.1%

**Q.** And the bioavailability ([1]; human, urine and feces, po, 600 mg, radioactivity in urine plus radioactivity recovered as metabolites in feces, read-out: Oral bioavailability suggested by the current study)?
**A.** ≥ 21%

**Q.** And the “Time by which 90% of the observed urinary recovery was achieved” value ([1]; post dose)?
**A.** ≤ 120 h

**Q.** And the “Time within which 90% of the observed fecal recovery was found” value ([1]; post dose)?
**A.** ≤ 168 h

**Q.** What about the “Recovery of administered radioactive dose in feces” value [1, 4] of the same molecule?
**A.** 71.9%

**Q.** What about the “Recovery of administered radioactive dose in urine” value [1, 4] of the same molecule?
**A.** 17.4%

**Q.** And the “Total recovery of administered radioactive dose in excreta” value [1, 4]?
**A.** 89.3%

**Q.** And the “% of dose in pooled urine, Patient 01” value ([2]; Patient 01)?
**A.** 14.3 % dose

**Q.** What about the “% of dose in pooled urine, Patient 03” value ([2]; Patient 03) of the same molecule?
**A.** 5.03 % dose

**Q.** What about the “% of dose in pooled urine, Patient 05” value ([2]; Patient 05) of the same molecule?
**A.** 2.85 % dose

**Q.** What about the “% of dose in pooled urine, Patient 06” value ([2]; Patient 06) of the same molecule?
**A.** 5.96 % dose

**Q.** What about the “% of dose in pooled urine, Patient 08” value ([2]; Patient 08) of the same molecule?
**A.** 10.7 % dose

**Q.** And the “% of dose in pooled urine, Patient 09” value ([2]; Patient 09)?
**A.** 6.77 % dose

**Q.** And the “% Peak (of TRA) in urine” value ([2]; pooled urine covering 90% of urine radioactivity, N = 6, mean ± SD)?
**A.** 44.9 ± 15.6%

**Q.** And the “% Dose in urine” value ([2]; N = 6, mean ± SD)?
**A.** 7.59 ± 4.16%

**Q.** What about the “% Dose in urine” value ([2]; N = 6, mean ± SD, listed as rucaparib) of the same molecule?
**A.** ≈ 7.6% and > 7%

**Q.** What about the “Accumulation at steady state” value ([3]; 600 mg BID) of the same molecule?
**A.** approximately four-fold

**Q.** And the “Time of dosing to achieve steady state” value ([3]; 600 mg BID)?
**A.** 1 week

**Q.** And the “Dose proportionality of plasma exposure” value ([3]; 40–500 mg QD and 240–840 mg BID)?
**A.** dose proportional

**Q.** And the “Median tmax, QD dosing” value ([3]; 40–500 mg once daily, Study 10)?
**A.** 1.5 to 6.0 h

**Q.** And the “Median tmax, BID dosing” value ([3]; 240–840 mg twice daily, Study 10)?
**A.** 1.5 to 4.0 h

**Q.** What about the “Apparent steady-state clearance, BID dosing” value ([3]; Study 10) of the same molecule?
**A.** 26.2 to 58.6 L/h

**Q.** What about the “Apparent steady-state clearance, QD dosing” value ([3]; Study 10) of the same molecule?
**A.** 26.7 to 47.5 L/h

**Q.** What about the “Increase of AUC by a high-fat meal” value [3, 5] of the same molecule?
**A.** 38%

**Q.** What about the “Increase of Cmax by a high-fat meal” value [3, 5] of the same molecule?
**A.** 20%

**Q.** What about the “t1/2 in a previous clinical trial” value ([3]; single oral dose, dose range 40–500 mg) of the same molecule?
**A.** 11 to 29.8 h
